One test concerns the target T1, cPLA2 (Homo sapiens, UniProt P47712).
T1 sequence (P47712 1-749): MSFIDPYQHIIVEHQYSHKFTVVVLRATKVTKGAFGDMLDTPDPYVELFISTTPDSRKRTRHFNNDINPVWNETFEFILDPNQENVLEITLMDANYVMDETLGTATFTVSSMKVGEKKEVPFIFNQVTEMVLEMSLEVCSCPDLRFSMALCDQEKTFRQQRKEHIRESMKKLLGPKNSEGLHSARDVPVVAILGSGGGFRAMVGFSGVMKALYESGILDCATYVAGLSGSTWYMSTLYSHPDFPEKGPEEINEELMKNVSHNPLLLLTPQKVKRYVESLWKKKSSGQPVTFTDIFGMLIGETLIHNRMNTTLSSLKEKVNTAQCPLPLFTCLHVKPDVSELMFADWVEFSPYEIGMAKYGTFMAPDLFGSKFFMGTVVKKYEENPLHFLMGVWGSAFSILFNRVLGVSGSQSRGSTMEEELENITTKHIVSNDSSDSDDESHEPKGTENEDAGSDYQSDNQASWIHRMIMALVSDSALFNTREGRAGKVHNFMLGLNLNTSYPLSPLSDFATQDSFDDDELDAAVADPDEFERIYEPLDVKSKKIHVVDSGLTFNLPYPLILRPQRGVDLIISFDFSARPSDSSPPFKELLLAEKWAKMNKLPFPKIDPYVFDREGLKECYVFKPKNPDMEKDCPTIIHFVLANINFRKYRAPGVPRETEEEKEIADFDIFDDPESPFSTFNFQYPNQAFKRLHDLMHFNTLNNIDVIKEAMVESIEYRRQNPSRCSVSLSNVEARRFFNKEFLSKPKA
The test can be described thus: Coumarin Assay (cPLA2 inhibition). It is filed as biochemical. Particulars: for inhibition at 6.25 µM: CONCENTRATION 6.25 micromolar; for inhibition at 0.7 µM: CONCENTRATION 0.7 micromolar; for inhibition at 0.8 µM: CONCENTRATION 0.8 micromolar; for inhibition at 0.9 µM: CONCENTRATION 0.9 micromolar. In outline: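 Percent inhibition at the stated concentration, from the rate of 460 nm emission rise (360 nm excitation) per minute. Reaction started by adding 4 μg enzyme to compound and 60 μM 7-hydroxycoumarinyl 6-heptenoate in Hepes buffer pH 7.5 with 1 mM EDTA.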

Test [1] concerns Rat Carrageenan-Induced Footpad Edema. Nature of the test: Rat Carrageenan-Induced Footpad Edema Test. It is filed as in vivo, male Sprague Dawley rats. Conditions: footpad volume 3 hours after carrageenan; for PERCENT INHIBITION / inhibition in vivo at 3 mg/kg / inhibition in vivo at 10 mg/kg / inhibition in vivo at 2 mg/kg: PO; for inhibition in vivo at 5 mg/kg / inhibition in vivo at 3 mg/kg / inhibition in vivo at 10 mg/kg / inhibition in vivo at 2 mg/kg: Rattus norvegicus, 3 h, read-out: PERCENT INHIBITION; for inhibition in vivo at 5 mg/kg: iv, IV; for inhibition in vivo at 3 mg/kg / inhibition in vivo at 10 mg/kg / inhibition in vivo at 2 mg/kg: po. A general note: In the carrageenan paw model, swelling and tenderness develop within hours.

[2] abbreviates: CONCENTRATION 2.5 micromolar, read-out: PERCENT INHIBITION @.

From patent US6500853B1, “Inhibitors of phospholipase enzymes” (Genetics Institute, LLC, priority 1998, dated 2002) come the findings set out here.

In general, inhibition refers to how much of the control response was suppressed.

As to “4-[(1-benzhydryl-5-nitro-1H-indol-3-yl)methyl]3-methoxybenzoic acid [Example 12]”, the “PERCENT INHIBITION @” value at cPLA2 (CONCENTRATION 0.35 micromolar), on cPLA2 (CONCENTRATION 0.38 micromolar), at cPLA2 (CONCENTRATION 0.39 micromolar), on cPLA2 (CONCENTRATION 0.4 micromolar), on cPLA2 (CONCENTRATION 0.44 micromolar) and on cPLA2 (CONCENTRATION 0.45 micromolar) was 50% throughout. Moreover, the “PERCENT INHIBITION @” value on cPLA2 (CONCENTRATION 0.5 micromolar) was found to be 64%; at cPLA2 (CONCENTRATION 1.25 micromolar), 86%. The “PERCENT INHIBITION” value was 0.19% in test [1] (2 mg/Kg) and −0.38% in test [1] (10 mg/Kg).
For the compound `O=C(O)c1ccc(CN2C(=O)S/C(=C/c3cn(CCCOc4cccc(Cc5ccccc5)c4)c4ccccc34)C2=O)cc1` [Example 82B, 4-{[5-((E)-{1-[3-(3-benzylphenoxy)propyl]-1H-indol-3-yl}methylidene)-2,4-dioxo-1,3-thiazolan-3-yl]methyl}benzoic acid], at cPLA2 (read-out: PERCENT INHIBITION @), the inhibition at 6.25 µM came to 61%. For the same compound, on cPLA2 (CONCENTRATION 6.5 micromolar, read-out: PERCENT INHIBITION @), the inhibition at 6.5 µM was 50%. The inhibition in vivo at 5 mg/kg in test [1] was 4.94%.
Consider `CS(=O)(=O)NC(=O)/C=C/c1cn(C(c2ccccc2)c2ccccc2)c2ccc([N+](=O)[O-])cc12` [Example 87B, N-((E)-3-{1-benzhydryl-5-nitro-1H-indol-3-yl}-2-propenoyl)methanesulfonamide], for which, on cPLA2 (CONCENTRATION 38 micromolar, read-out: PERCENT INHIBITION @), the inhibition at 38 µM worked out at 50%. For the same compound, on cPLA2 (CONCENTRATION 42.5 micromolar, read-out: PERCENT INHIBITION @), the inhibition at 42.5 µM worked out at 50%. The inhibition in vivo at 3 mg/kg in test [1] was found to be 17.9%. Also, the inhibition in vivo at 10 mg/kg in test [1] (10 mg/Kg) amounted to 31.4%.
Consider `COc1cc(C(=O)NS(=O)(=O)C(F)(F)F)ccc1Cc1cn(C(c2ccccc2)c2ccccc2)c2ccc(Br)cc12` [Example 39, N-{4-[(1-benzhydryl-5-bromo-1H-indol-3-yl)methyl]-3-methoxybenzoyl}(trifluoro)methanesulfonamide], for which the inhibition at 0.39 µM on cPLA2 (CONCENTRATION 0.39 micromolar, read-out: PERCENT INHIBITION @) is 50%. In addition, at cPLA2 (read-out: PERCENT INHIBITION @), the inhibition at 0.7 µM is 50%, the inhibition at 0.8 µM was determined as 50% and the inhibition at 0.9 µM amounted to 50%. Further, the inhibition at 0.73 µM on cPLA2 (CONCENTRATION 0.73 micromolar, read-out: PERCENT INHIBITION @) turned out to be 50%. For the same compound, the inhibition at 0.75 µM on cPLA2 (CONCENTRATION 0.75 micromolar, read-out: PERCENT INHIBITION @) stood at 50%. Besides, on cPLA2 (CONCENTRATION 1 micromolar, read-out: PERCENT INHIBITION @), the inhibition at 1 µM amounted to 50%. In addition, the inhibition at 1.2 µM at cPLA2 (CONCENTRATION 1.2 micromolar, read-out: PERCENT INHIBITION @) worked out at 50%. For the same compound, the inhibition at 1.3 µM on cPLA2 (CONCENTRATION 1.3 micromolar, read-out: PERCENT INHIBITION @) is 50%. Moreover, the inhibition at 1.6 µM at cPLA2 (CONCENTRATION 1.6 micromolar, read-out: PERCENT INHIBITION @) came to 50%. The inhibition in vivo at 2 mg/kg in test [1] (2 mg/Kg) was found to be 1.98%. Also, the inhibition in vivo at 10 mg/kg in test [1] (10 mg/Kg) was -7.16%.
Take “4-[(1-benzhydryl-5-{[(dimethylamino)sulfonyl]amino}-1H-indol-3-yl)methyl]-3- [Example 92]”: the “PERCENT INHIBITION @” value at cPLA2 (CONCENTRATION 11 micromolar), on cPLA2 (CONCENTRATION 12.5 micromolar) and at cPLA2 (CONCENTRATION 14.2 micromolar) was 50% each time. Further, the “PERCENT INHIBITION” value in test [1] (2 mg/Kg) was determined as 27.36%; in test [1] (10 mg/Kg) it was 21.34%.
With `COc1cc(-c2nnn[nH]2)ccc1Cc1cn(C(c2ccccc2)c2ccccc2)c2ccc(NC(=O)OC3CCCC3)cc12` [Example 98, cyclopentyl N-{1-benzhydryl-3-[2-methoxy-4-(1H-1,2,3,4-tetraazol-5-yl)benzyl]-1H-indol-5-yl}carbamate], the inhibition at 4.8 µM at cPLA2 (CONCENTRATION 4.8 micromolar, read-out: PERCENT INHIBITION @) turned out to be 50%. The inhibition at 6.25 µM on cPLA2 (read-out: PERCENT INHIBITION @) was found to be 66%. Besides, the inhibition at 8.7 µM at cPLA2 (CONCENTRATION 8.7 micromolar, read-out: PERCENT INHIBITION @) turned out to be 50%. Moreover, the inhibition in vivo at 5 mg/kg in test [1] stood at 18.4%.
As for `COc1cc(C(=O)NS(=O)(=O)C(F)(F)F)ccc1Cc1cn(C(c2ccccc2)c2ccccc2)c2ccc(NS(C)(=O)=O)cc12` [Example 41, N-[4-({1-benzhydryl-5-[(methylsulfonyl)amino]-1H-indol-3-yl}methyl)-3-methoxybenzoyl](trifluoro)methanesulfonamide], the inhibition at 2.5 µM on cPLA2 (setting [2]) was 50%. Besides, the inhibition at 3.8 µM at cPLA2 (CONCENTRATION 3.8 micromolar, read-out: PERCENT INHIBITION @) was determined as 50%. In addition, the inhibition at 4.3 µM on cPLA2 (CONCENTRATION 4.3 micromolar, read-out: PERCENT INHIBITION @) turned out to be 50%. Further, on cPLA2 (CONCENTRATION 5 micromolar, read-out: PERCENT INHIBITION @), the inhibition at 5 µM came out at 50%. Further, in test [1], the inhibition in vivo at 5 mg/kg is 10.1%.
For the compound `COc1cc(C(=O)O)ccc1Cc1cn(C(c2ccccc2)c2ccccc2)c2ccc(NS(=O)(=O)c3ccccc3C)cc12` [Example 94, 4-[(1-benzhydryl-5-{[(2-methylphenyl)sulfonyl]amino}-1H-indol-3-yl)methyl]-3-methoxybenzoic acid], the inhibition at 7 µM at cPLA2 (CONCENTRATION 7 micromolar, read-out: PERCENT INHIBITION @) amounted to 50%. On cPLA2 (CONCENTRATION 7.5 micromolar, read-out: PERCENT INHIBITION @), the inhibition at 7.5 µM was determined as 50%. Also, the inhibition in vivo at 2 mg/kg in test [1] (2 mg/Kg) came out at 19%. Besides, in test [1], the inhibition in vivo at 3 mg/kg came to 3.13%.
For `COc1cc(C(=O)NS(=O)(=O)C(F)(F)F)ccc1Cc1cn(C(c2ccccc2)c2ccccc2)c2ccc(NC(=O)C3CCCC3)cc12` [Example 40, N-{1-benzhydryl-3-[2-methoxy-4-({[(trifluoromethyl)sulfonyl]amino}carbonyl)benzyl]-1H-indol-5-yl}cyclopentanecarboxamide], on cPLA2 (CONCENTRATION 2.5 micromolar), the “PERCENT INHIBITION @” value was 55%. Besides, the inhibition at 2.5 µM at cPLA2 (setting [2]) was determined as 50%. The inhibition at 3 µM on cPLA2 (CONCENTRATION 3 micromolar, read-out: PERCENT INHIBITION @) was determined as 50%. Further, at cPLA2 (CONCENTRATION 3.6 micromolar, read-out: PERCENT INHIBITION @), the inhibition at 3.6 µM is 50%. For the same compound, in test [1], the inhibition in vivo at 5 mg/kg was determined as 8.21%.
Take `O=C(O)c1ccc(Cc2cn(C(c3ccccc3)c3ccccc3)c3ccc(Br)cc23)cc1` [Example 51, 4-[(1-benzhydryl-5-bromo-1H-indol-3-yl)methyl]benzoic acid]: on cPLA2 (CONCENTRATION 0.6 micromolar, read-out: PERCENT INHIBITION @), the inhibition at 0.6 µM was 50%. In addition, at cPLA2 (read-out: PERCENT INHIBITION @), the inhibition at 0.8 µM turned out to be 50% and the inhibition at 0.9 µM stood at 50%. The inhibition in vivo at 2 mg/kg in test [1] (2 mg/Kg) is 3.23%. Moreover, the inhibition in vivo at 10 mg/kg in test [1] (10 mg/Kg) was found to be 15.4%.
On to `COc1cc(C(=O)O)ccc1Cc1cn(C(c2ccccc2)c2ccccc2)c2ccc(F)cc12` [Example 14, 4-[(1-benzhydryl-5-fluoro-1H-indol-3-yl)methyl]-3-methoxybenzoic acid], for which the inhibition at 0.7 µM at cPLA2 (read-out: PERCENT INHIBITION @) was determined as 50%. Also, at cPLA2 (CONCENTRATION 0.95 micromolar, read-out: PERCENT INHIBITION @), the inhibition at 0.95 µM was determined as 50%. Further, the inhibition in vivo at 2 mg/kg in test [1] (2 mg/Kg) was 11.5%. In test [1] (10 mg/Kg), the inhibition in vivo at 10 mg/kg came to 8.14%.
On to `O=C(O)Cc1cn(Cc2ccccc2)c2ccc(-c3cc4ccccc4o3)cc12` [Example 80, 2-[5-(1-benzofuran-2-yl)-1-benzyl-1H-indol-3-yl]acetic acid], for which the inhibition at 48 µM on cPLA2 (CONCENTRATION 48 micromolar, read-out: PERCENT INHIBITION @) came to 50%. At cPLA2 (CONCENTRATION 50 micromolar, read-out: PERCENT INHIBITION @), the inhibition at 50 µM was 60%. For the same compound, the inhibition in vivo at 5 mg/kg in test [1] is 10.2%.
